The values below come from patent publication US9737535B2, “Methods for treating cancer using TOR kinase inhibitor combination therapy comprising administering substituted pyrazino[2,3-b]pyrazines” (Signal Pharmaceuticals, LLC, priority 2014, dated 2017).

Common to all, as to test: Anti-proliferation assay (ATPLite), Chalice synergy score
What all share (format): cell-based

For one experiment, the system named is HCC-1187. The arrangement: scale not given here. As to conditions: Compound 1 in combination with the named second active agent, 72 h, mean of n = 3 experiments in triplicate. From the text:
(§1) Cells were thawed from a liquid nitrogen preserved state.
(§2) The calculation for synergy score is provided below.
(§3) If T≧V0:100*[1−(T−V0)/(V−V0)]

A further experiment has as its system BT-20. The arrangement: scale not given here. As to conditions: Compound 1 in combination with the named second active agent, 72 h, mean of n = 3 experiments in triplicate.
Source text: as §1, §2, §3

The test system of the next experiment is HCC-1500. The arrangement: scale not given here. The conditions noted are these: Compound 1 in combination with the named second active agent, 72 h, mean of n = 3 experiments in triplicate.
Source text: as §1, §2, §3

In the next experiment the test system is BT-549. The conditions noted are these: Compound 1 in combination with the named second active agent, 72 h, mean of n = 3 experiments in triplicate.
Source text: as §1, §2, §3

The next experiment has as its system BT-474. As to conditions: Compound 1 in combination with the named second active agent, 72 h, mean of n = 3 experiments in triplicate.
Source text: as §1, §2, §3

A further experiment concerns MCF7. The conditions noted are these: Compound 1 in combination with second active agent, mean self-cross + 2σ threshold 3.07.
Source text: as §1, §2, §3

Another experiment relates to MDA-MB-157. The conditions noted are these: Compound 1 in combination with second active agent, mean self-cross + 2σ threshold 4.68.
Source text: as §1, §2, §3

Another experiment deals with HCC-1937. The conditions noted are these: Compound 1 in combination with the named second active agent, 72 h, mean of n = 3 experiments in triplicate.
Source text: as §1, §2, §3

The subject of a further experiment is Hs-578-T. As to conditions: Compound 1 in combination with second active agent, mean self-cross + 2σ threshold 4.09.
Source text: as §1, §2, §3

A further experiment has as its system MDA-MB-468. As to conditions: Compound 1 in combination with second active agent, mean self-cross + 2σ threshold 4.66.
Source text: as §1, §2, §3

The next experiment has as its system HCC-1428. As to conditions: Compound 1 in combination with the named second active agent, 72 h, mean of n = 3 experiments in triplicate.
Source text: as §1, §2, §3

The next experiment relates to HCC-1806. As to conditions: Compound 1 in combination with the named second active agent, 72 h, mean of n = 3 experiments in triplicate.
Source text: as §1, §2, §3

Another experiment relates to HCC70. The conditions noted are these: Compound 1 in combination with second active agent; HCC-70; mean self-cross + 2σ threshold 3.45.
Source text: as §1, §2, §3

The next experiment concerns MDA-MB-436. As to conditions: Compound 1 in combination with second active agent, mean self-cross + 2σ threshold 1.91.
Source text: as §1, §2, §3

Another experiment concerns MDA-MB-231. The conditions noted are these: Compound 1 in combination with second active agent, mean self-cross + 2σ threshold 2.61.
Source text: as §1, §2, §3

Counter-ions that a name gives are not always drawn.

Regarding `NS(=O)(=O)OC[C@@H]1C[C@@H](n2ccc3c(N[C@H]4CCc5ccccc54)ncnc32)C[C@@H]1O` [MLN-4924], the Synergy score in the experiment on HCC-1187 amounted to 7.09; in the experiment on BT-20 it was 1.78; in the experiment with HCC-1500, 1.31; with BT-549, 2.83; in the experiment on BT-474, 8.59; in the experiment on MCF7 it was 0.94. Besides, the Synergy score with MDA-MB-157 is on record as 6.73; in the experiment on HCC-1937, 9.15; in the experiment on Hs-578-T, 3.55; with MDA-MB-468, 15.10; in the experiment on HCC-1428 it was 3.68; with HCC-1806 it was 2.90. The Synergy score in the experiment on HCC70 is listed as 0.46.

For the compound CHIR98014, the Synergy score in the experiment on HCC-1187 turned out to be 3.13; in the experiment with BT-20 it was 0.17; with BT-549, 0.49; in the experiment with BT-474 it was 0.02; with MCF7 it was 0.29; in the experiment on MDA-MB-436, 0.64. Moreover, the Synergy score was determined as 3.17 with MDA-MB-157; 0.63 in the experiment on HCC-1937; 5.48 with Hs-578-T; 3.00 with MDA-MB-468; 0.72 in the experiment with HCC-1428; 3.91 in the experiment with MDA-MB-231. For the same compound, the results for the Synergy score with HCC-1806 and in the experiment with HCC70 were 1.56 and 0.82, respectively.

With `N.N.O=C([O-])C1(C(=O)[O-])CCC1.[Pt+2]` [Carboplatin], the Synergy score in the experiment on HCC-1187 was 2.20; in the experiment on BT-20, 0.98; with BT-549, 0.72; with BT-474, 0.30; with MCF7, 0.80; in the experiment on MDA-MB-436, 1.10. Besides, the Synergy score in the experiment with MDA-MB-157 was 1.77; in the experiment on HCC-1937, 2.46; in the experiment with Hs-578-T, 1.65; in the experiment with MDA-MB-468 it was 7.18; with HCC-1428, 0.52; in the experiment on MDA-MB-231, 0.45. Moreover, the Synergy score in the experiment on HCC-1806 is 0.44; in the experiment on HCC70, 2.26.

As for `CNC(=O)c1ccc(-c2cnc3ncc(Cc4ccc5ncccc5c4)n3n2)cc1F` [INCB28060], the Synergy score with HCC-1187 stood at 2.94; in the experiment on HCC-1500, 0.52; in the experiment with BT-549 it was 0.66; in the experiment with BT-474, 2.35; with MCF7, 0.92; in the experiment on MDA-MB-436, 0.49. For the same compound, the Synergy score with MDA-MB-157 turned out to be 0.97; in the experiment on HCC-1937, 0.71; in the experiment with Hs-578-T, 0.85; in the experiment with MDA-MB-468 it was 0.80; in the experiment on HCC-1428, 0.75; in the experiment with MDA-MB-231, 0.34. For the same compound, the figures for the Synergy score in the experiment on HCC-1806 and with HCC70 were 0.62 and 0.75, respectively.

On to `COc1ccc(C2=N[C@@H](c3ccc(Cl)cc3)[C@@H](c3ccc(Cl)cc3)N2C(=O)N2CCNC(=O)C2)c(OC(C)C)c1` [Nutlin-3], for which the Synergy score in the experiment on HCC-1187 amounted to 2.08; in the experiment on BT-20, 0.27; in the experiment with HCC-1500, 2.54; in the experiment with BT-549 it was 0.40; with BT-474 it was 0.34; with MCF7, 2.05. The Synergy score was found to be 0.50 in the experiment on MDA-MB-436; 0.66 in the experiment on MDA-MB-157; 0.58 in the experiment with HCC-1937; 1.65 in the experiment on Hs-578-T; 0.33 in the experiment on HCC-1428; 0.27 in the experiment with MDA-MB-231. Moreover, the Synergy score was found to be 0.79 with HCC-1806 and 2.72 in the experiment with HCC70.

Consider `O=C(Nc1cccc(Nc2ncc(Br)c(NCCc3c[nH]cn3)n2)c1)N1CCCC1` [BX-912], for which the Synergy score with HCC-1187 came out at 4.10; with BT-20, 1.32; with HCC-1500, 2.11; in the experiment with BT-549 it was 1.52; in the experiment with BT-474, 0.87; in the experiment on MCF7 it was 0.69. Besides, the Synergy score in the experiment on MDA-MB-436 is recorded as 2.50; in the experiment with MDA-MB-157, 6.65; in the experiment on HCC-1937, 0.44; in the experiment on Hs-578-T, 6.07; in the experiment with MDA-MB-468 it was 8.29; in the experiment with HCC-1428, 2.05. The Synergy score in the experiment with HCC-1806 came out at 0.57; in the experiment with HCC70, 6.05.

`COc1cc2nccc(Oc3ccc(NC(=O)C4(C(=O)Nc5ccc(F)cc5)CC4)cc3)c2cc1OC` [XL184]: the Synergy score with HCC-1187 is on record as 1.29; with BT-20, 3.67; with HCC-1500 it was 1.20; in the experiment with BT-549 it was 0.52; in the experiment with BT-474, 1.51; in the experiment with MCF7, 4.34. The Synergy score in the experiment with MDA-MB-436 is 0.90; with HCC-1937, 2.15; in the experiment with Hs-578-T it was 3.19; in the experiment with MDA-MB-468, 1.84; with HCC-1428, 1.19; in the experiment on HCC-1806, 1.44. Moreover, the Synergy score in the experiment on HCC70 stood at 1.47.

In the case of `CC(=O)c1c(C)c2cnc(Nc3ccc(N4CCNCC4)cn3)nc2n(C2CCCC2)c1=O` [PD-0332991], the Synergy score came to 2.76 in the experiment on HCC-1187; 2.71 in the experiment with HCC-1500; 1.10 with BT-549; 0.31 in the experiment with BT-474; 2.48 with MCF7; 0.44 in the experiment with MDA-MB-436. The Synergy score was found to be 0.73 in the experiment on MDA-MB-157; 0.55 in the experiment on HCC-1937; 0.75 in the experiment with Hs-578-T; 2.12 with MDA-MB-468; 2.01 in the experiment on HCC-1428; 2.88 in the experiment with MDA-MB-231. The Synergy score in the experiment on HCC-1806 is 1.54; with HCC70, 2.17.

`O=C(/C=C/c1cccnc1)NCCCCC1CCN(C(=O)c2ccccc2)CC1` [FK-866]: the Synergy score is 0.25 in the experiment with HCC-1187; 0.30 in the experiment with BT-20; 1.15 with HCC-1500; 0.11 in the experiment on BT-549; 0.60 with BT-474; 0.04 in the experiment on MCF7. Also, the Synergy score with MDA-MB-436 is recorded as 0.97; in the experiment with HCC-1937, 0.60; in the experiment with Hs-578-T it was 5.32; in the experiment on MDA-MB-468, 0.28; in the experiment with HCC-1428, 0.20; in the experiment with HCC-1806, 0.00. The Synergy score in the experiment on HCC70 is on record as 0.30.

On to `COc1cccc2c1C(=O)c1c(O)c3c(c(O)c1C2=O)C[C@@](O)(C(=O)CO)C[C@@H]3O[C@H]1C[C@H](N)[C@H](O)[C@H](C)O1` [Doxorubicin Hcl, Doxorubicin HCl], for which the Synergy score came out at 4.45 in the experiment with HCC-1187; 3.96 with BT-20; 2.70 in the experiment with HCC-1500; 4.78 in the experiment on BT-549; 1.25 in the experiment on BT-474; 3.89 with MDA-MB-436. The Synergy score came to 8.50 in the experiment with MDA-MB-157; 6.92 in the experiment with HCC-1937; 5.85 with Hs-578-T; 6.36 with MDA-MB-468; 0.96 with HCC-1428; 3.55 in the experiment on HCC-1806. In the experiment on HCC70, the Synergy score worked out at 4.00.
